Experiments:
NRK cells [1] = assay: Nitrotyrosine immunocytochemistry during CS; type: cell-based, rat; details: 4 h CS, 1 μM
Method: (§1) Normal rat kidney proximal tubular cells (NRK-52E; American Type Culture Collection, Manassas, Va.) were maintained in six-well 100 or 150-mm, or 150-mm plates in a humidified incubator gassed with 5% CO2 and 95% air at 37° C. in DMEM (Invitrogen, Carlsbad, Calif.) containing 5% fetal calf serum (FCS). Cells were grown to 60% confluence and divided into four treatment groups: 1) untreated (Untx), 2) CS, 3) CS+MitoQ, and 4) CS+DecylTPP. Untreated cells remained at 37° C. in DMEM containing 5% FCS (group 1). CS was initiated by washing cells with cold PBS (Invitrogen) twice and storing them in UW/Viaspan solution alone (4 h at 4° C.) (group 2), CS+MitoQ (1 μM) (group 3), or CS+DecylTPP (1 μM) (group 4). In separate experiments, cells were exposed to CS plus RW by replacing UW solution alone or UW solution containing MitoQ or DecylTPP with DMEM containing 5% FCS overnight (18 h at 37° C.).
(§2) NRK cells (groups 1-4) were assessed for nitrotyrosine formation as previously described. […] Nitrotyrosine staining was evaluated and captured with equal exposure times using a Nikon Eclipse 800 microscope (40×oil). Images were quantified by averaging the mean intensity fluorescence of five random cells in three different fields using Nikon N is Elements software. Renal tissue sections were assessed for the presence of nitrotyrosine protein adducts by nitrotyrosine immunohistochemistry. […]

rat kidneys [2] = assay: Periodic acid-Schiff morphological assessment of renal injury during CS; details: 4 h CS, 100 μM
Method: (§3) All animals were treated according to the National Institutes of Health Guide for the Care and Use of Laboratory Animals and the University of Arkansas for Medical Sciences Institutional Animal Care and Use Committee guidelines. Male Fischer 344 inbred rats (Charles Rivers Laboratories, Inc., Wilmington, Mass.) weighing between 250 and 300 g were anesthetized with ethrane, followed by shaving and prepping with betadine. […] Bulldog clamps were placed on the aorta and vena cava (proximal and distal to the renal vessels) to prevent blood flow to the kidneys. A 22-gauge surgical needle was used to puncture the rat's aorta to flush the renal grafts with saline (10 ml per kidney) using a small catheter. Once the kidneys started to turn light brown (perfusion), another vent was formed in the vena cava to allow blood flow from the kidneys. Once both kidneys were completely flushed, the right kidney was recovered and served as a control (group 1), and the left kidney was exposed to CS alone for 4 h at 4° C. […]
Renal sections were assessed for tissue injury using the periodic acid-Schiff reaction. […] Morphological evaluation of tubular dilation, brush border loss, and cellular debris/tubular cast formation were performed blindly with light microscopy and assessed semiquantitatively according to the following scoring system: 0, no changes; 1, mild changes; 2, moderate changes, and 3, severe changes.

rat kidneys [3] = assay: TUNEL staining of renal cell death during CS; details: 4 h CS, 100 μM
Method: as §3, with “kidneys.” for “kidneys. Once both kidneys were completely flushed, the right kidney was recovered and served as a control (group 1), and the left kidney was exposed to CS alone for 4 h at 4° C.”
Cell cytotoxicity was determined using the LDH-Cytotoxicity Assay Kit II (Biovision Research Products, Mountain View, Calif.) according to the manufacturer's instructions. Absorbance was measured at 450 nm using a SpectraMax 190 microplate reader and SpectraMax software (Molecular Devices, Sunnyvale, Calif.). Renal cell death was determined using TUNEL staining. […] The amount of cell death was calculated by averaging the number of cells positive for TUNEL (brown staining) in 10 different fields (cortex and medulla) (20×). […]

NRK cells [4] = assay: LDH cytotoxicity assay, CS and CS plus rewarming; type: cell-based; details: 1 μM
Method: as §1
Cell cytotoxicity was determined using the LDH-Cytotoxicity Assay Kit II (Biovision Research Products, Mountain View, Calif.) according to the manufacturer's instructions. Absorbance was measured at 450 nm using a SpectraMax 190 microplate reader and SpectraMax software (Molecular Devices, Sunnyvale, Calif.). Renal cell death was determined using TUNEL staining. Kidney sections were deparaffinized, rehydrated, and exposed to antigen retrieval (20-min incubation at 95° C. with 10 mM sodium citrate buffer, pH 6.0) followed by washing with distilled water and quenching of endogenous peroxidase. Sections were immersed in TdT labeling buffer and then incubated in a humidified chamber with the labeling reaction mix from the TAGS 2 TdT-DAB In Situ Apoptosis Detection kit (Trevigen, Inc., Gaithersburg, Md.) for 1 h at room temperature. The reaction was stopped with TdT stop buffer, and slides were subsequently washed with PBS. Sections were incubated for 10 min with streptavidin-HRP followed by development with diaminobenzidine solution, counterstaining with Mayer's hematoxylin, dehydration, and mounting with Cytoseal-60. The amount of cell death was calculated by averaging the number of cells positive for TUNEL (brown staining) in 10 different fields (cortex and medulla) (20×). All images were taken at equal exposure times (40×oil).

rat kidneys [5] = assay: MitoSOX Red mitochondrial superoxide generation, cold storage ex vivo model; details: rat kidneys, 4 h CS at 4° C., 100 μM
Method: as §3, with “C. (group 2). In additional experiments, kidneys were flushed with saline through the aorta using a small catheter followed by flushing the right kidney with saline containing MitoQ (100 μM) and the left kidney with saline containing DecylTPP (100 μM) (10 ml per kidney). Tissues were recovered and stored in CS+MitoQ (100 μM; right kidney) or CS+DecylTPP (100 μM; left kidney) for 4 h at 4° C. (groups 3 and 4, respectively).” for “C.”
(§4) MitoSOX Red (Invitrogen) was used to measure mitochondrial superoxide generation during CS. […] Fluorescence was visualized using an Eclipse E800 microscope (Nikon, Melville, N.Y.) with a rhodamine filter using a water immersion objective (60×). Fluorescent images of NRK cells were captured with equal exposure times and quantified by averaging the mean intensity fluorescence of five random cells in three different fields using Nikon N is Elements software. In separate experiments, cells were grown on coverslips, preloaded with MitoSOX Red before treatment (groups 1-4), and evaluated for mitochondrial superoxide generation using a Hitachi F-2500 spectrofluorometer (Hitachi, Tokyo, Japan) equipped with a coverslip holder using two different excitation wavelengths: 396 and 510 nm with the emission measured at 580 nm as previously described. In addition, rat kidneys were monitored for mitochondrial superoxide generation by flushing kidneys with saline through the aorta using a small catheter as described under Cold Storage Ex Vivo Model, followed by saline containing MitoSOX Red (5 μM; 10 ml/kidney) before treatment (groups 1-4). Paraffin sections were analyzed using the rhodamine filter on the Nikon Eclipse 800 microscope (20×).

NRK cells [6] = assay: MitoSOX Red mitochondrial superoxide generation, cold storage in vitro model; type: cell-based, rat; details: 4 h CS at 4° C. in UW, 1 μM
Method: Normal rat kidney proximal tubular cells (NRK-52E; American Type Culture Collection, Manassas, Va.) were maintained in six-well 100 or 150-mm, or 150-mm plates in a humidified incubator gassed with 5% CO2 and 95% air at 37° C. in DMEM (Invitrogen, Carlsbad, Calif.) containing 5% fetal calf serum (FCS). Cells were grown to 60% confluence and divided into four treatment groups: 1) untreated (Untx), 2) CS, 3) CS+MitoQ, and 4) CS+DecylTPP. Untreated cells remained at 37° C. in DMEM containing 5% FCS (group 1). […]
as §4, with “In addition, rat kidneys were monitored for mitochondrial superoxide generation by flushing kidneys with saline through the aorta using a small catheter as described under Cold Storage Ex Vivo Model, followed by saline containing MitoSOX Red (5 μM; 10 ml/kidney) before treatment (groups 1-4). Paraffin sections were analyzed using the rhodamine filter on the Nikon Eclipse 800 microscope (20×).” left out

[7] = test system: mitochondrial respiratory complex II; assay: Mitochondrial respiratory complex activity, NRK cell mitochondria after CS; type: cell-based, rat; details: NRK cells, 4-h CS, 1 μM
Method: as §1
(§5) NRK cell and rat kidney mitochondria were isolated by centrifugation on a sucrose density gradient. The activity of mitochondrial respiratory complexes I, II, III, or IV were assayed spectrophotometrically using 100 μg of mitochondrial protein at 30° C. as previously described.

[8] = test system: mitochondrial respiratory complex I; assay: as above; type: cell-based, rat; details: NRK cells, 4-h CS, 1 μM
Method: as §1, §5

[9] = test system: mitochondrial respiratory complex II; assay: Mitochondrial respiratory complex activity, rat kidney mitochondria after CS; details: rat kidneys, 4-h CS, 100 μM
Method: (§6) All animals were treated according to the National Institutes of Health Guide for the Care and Use of Laboratory Animals and the University of Arkansas for Medical Sciences Institutional Animal Care and Use Committee guidelines. Male Fischer 344 inbred rats (Charles Rivers Laboratories, Inc., Wilmington, Mass.) weighing between 250 and 300 g were anesthetized with ethrane, followed by shaving and prepping with betadine. […] Bulldog clamps were placed on the aorta and vena cava (proximal and distal to the renal vessels) to prevent blood flow to the kidneys. A 22-gauge surgical needle was used to puncture the rat's aorta to flush the renal grafts with saline (10 ml per kidney) using a small catheter. Once the kidneys started to turn light brown (perfusion), another vent was formed in the vena cava to allow blood flow from the kidneys. Once both kidneys were completely flushed, the right kidney was recovered and served as a control (group 1), and the left kidney was exposed to CS alone for 4 h at 4° C. (group 2). In additional experiments, kidneys were flushed with saline through the aorta using a small catheter followed by flushing the right kidney with saline containing MitoQ (100 μM) and the left kidney with saline containing DecylTPP (100 μM) (10 ml per kidney). Tissues were recovered and stored in CS+MitoQ (100 μM; right kidney) or CS+DecylTPP (100 μM; left kidney) for 4 h at 4° C. (groups 3 and 4, respectively). A thin middle section from all of the kidneys were cut and immediately fixed in 10% formalin before being embedded in paraffin for sectioning (4 μm) and histological evaluation. The remaining portion of the kidneys were quickly frozen in liquid nitrogen and stored in −80° C. until needed for biochemistry analyses.
as §5

[10] = test system: mitochondrial respiratory complex I; assay: as above; details: rat kidneys, 4-h CS, 100 μM
Method: as §6, §5

NRK cells [11] = assay: Nitrotyrosine immunocytochemistry, CS plus rewarming; type: cell-based, rat; details: 4-h CS plus overnight (18 h) RW, 1 μM added during CS
Method: as §1, §2

NRK cells [12] = details: 24 h CS of NRK cells; cited from earlier work

| SMILES | effect on CS-mediated nitrotyrosine formation (NRK cells [1]) | renal histology / renal injury (periodic acid-Schiff staining) (rat kidneys [2]) | protection against cell death (TUNEL) (rat kidneys [3]) | effect on cell death (LDH cytotoxicity) (NRK cells [4]; CS alone) | effect on cell death (LDH cytotoxicity) (NRK cells [4]; CS.RW) | mitochondrial superoxide generation (MitoSOX Red) (rat kidneys [5]) | CS-induced mitochondrial superoxide generation (MitoSOX Red) (NRK cells [6]) | complex II inactivation [7] | complex I inactivation [8] | complex II inactivation [9] | complex I inactivation [10] | nitrotyrosine staining during CS.RW (NRK cells [11]) | nitrotyrosine staining (one marker of peroxynitrite) (NRK cells [12]) |
| --- | --- | --- | --- | --- | --- | --- | --- | --- | --- | --- | --- | --- | --- |
| CCCCCCCCCC[P+](c1ccccc1)(c1ccccc1)c1ccccc1.[Br-] [DecylTPP, decyltriphenylphosphonium bromide, reference compound] | did not decrease | did not reverse renal injury | no protective benefits | did not reduce | did not reduce | comparable levels of mitochondrial superoxide to kidneys exposed to CS alone | did not offer any protection | no significant effect | no significant effect | did not have any effect | did not have any effect | no effect |  |
| CNC(=N)NCCC[C@H](N)C(=O)O.O=C(O)CC(O)(CC(=O)O)C(=O)O [N^5-[imino(methylamino)methyl]-L-ornithine citrate] |  |  |  |  |  |  |  |  |  |  |  |  | inhibited |
